# Assay results published in patent publication US9980943B2, “Methods of treating muscular dystrophy” (BOARD OF REGENTS OF THE NEVADA SYSTEM OF HIGHER EDUCATION, …, priority 2013, dated 2018).
# Experiments:
# Format in all cases: cell-based, mouse
# [1] = system: α7 integrin (LacZ reporter in α7βgal+/− myoblasts); assay: Myoblast α7+/LacZ integrin FDG assay (Burkin assay in myoblasts, 96-well); conditions: α7+/LacZ myoblasts, 96-well
# [2] = system: α7 integrin (LacZ reporter in α7+/LacZ myotubes); assay: Myotube α7 integrin FDG assay (Burkin assay in myotubes, 96-well); conditions: myotubes
# [3] = system: β-galactosidase in CMV-LacZ C2C12 myoblasts; assay: CMV-LacZ secondary screen in C2C12 myoblasts (β-Gal stabilizing assay); conditions: CMV-LacZ C2C12 myoblasts
# In short: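 β-Gal level was the read-out, measured in a clonal C2C12 line expressing LacZ from a CMV promoter. Dose-response curves used six concentrations, 0.5 μM up to 40 μM, with duplicate points.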
# [4] = system: β-galactosidase in CMV-LacZ C2C12 myotubes; assay: CMV-LacZ secondary screen in C2C12 myotubes (β-Gal stabilizing assay); conditions: C2C12 CMV-LacZ myotubes, fold relative to DMSO
# In short: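 A secondary screen identifies compounds that stabilize β-gal independently of the native promoter, using CMV-LacZ C2C12 cells. Curves span 0.5–40 μM at six levels, in duplicate.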
structure (smiles),measurement,setting,value
Cc1cc([N+](=O)[O-])ccc1NC(=O)C(C)N1CCN(c2ccccn2)CC1 (stereo not drawn) [MLS000764729-01],"Burkin Assay in Myoblasts, signal relative to DMSO",[1]; 0.5 uM,1.088
same,"Burkin Assay in Myoblasts, signal relative to DMSO",[1]; 1 uM,1.0582
same,"Burkin Assay in Myoblasts, signal relative to DMSO",[1]; 5 uM,0.9816
same,"Burkin Assay in Myoblasts, signal relative to DMSO",[1]; 10 uM,0.9694
same,"Burkin Assay in Myoblasts, signal relative to DMSO",[1]; 20 uM,0.9581
same,"Burkin Assay in Myoblasts, signal relative to DMSO",[1]; 40 uM,0.726
same,"Burkin Assay in Myotubes, α7 integrin LacZ reporter signal relative to DMSO",[2]; 0.5 uM,1.055
same,"Burkin Assay in Myotubes, α7 integrin LacZ reporter signal relative to DMSO",[2]; 1 uM,1.084
same,"Burkin Assay in Myotubes, α7 integrin LacZ reporter signal relative to DMSO",[2]; 5 uM,1.008
same,"Burkin Assay in Myotubes, α7 integrin LacZ reporter signal relative to DMSO",[2]; 10 uM,0.972
same,"Burkin Assay in Myotubes, α7 integrin LacZ reporter signal relative to DMSO",[2]; 20 uM,0.681
same,"Burkin Assay in Myotubes, α7 integrin LacZ reporter signal relative to DMSO",[2]; 40 uM,0.6075
same,CMV-LACZ in Myoblasts (β-galactosidase activity relative to DMSO),[3]; 0.5 uM,0.9865
same,CMV-LACZ in Myoblasts (β-galactosidase activity relative to DMSO),[3]; 1 uM,0.9520
same,CMV-LACZ in Myoblasts (β-galactosidase activity relative to DMSO),[3]; 5 uM,1.0259
same,CMV-LACZ in Myoblasts (β-galactosidase activity relative to DMSO),[3]; 10 uM,0.8880
same,CMV-LACZ in Myoblasts (β-galactosidase activity relative to DMSO),[3]; 20 uM,1.1200
same,CMV-LACZ in Myoblasts (β-galactosidase activity relative to DMSO),[3]; 40 uM,0.7504
same,"CMV-LACZ in Myotubes, signal relative to DMSO",[4]; 0.5 uM,1.0358
same,"CMV-LACZ in Myotubes, signal relative to DMSO",[4]; 1 uM,1.1432
same,"CMV-LACZ in Myotubes, signal relative to DMSO",[4]; 5 uM,1.0779
same,"CMV-LACZ in Myotubes, signal relative to DMSO",[4]; 10 uM,0.9634
same,"CMV-LACZ in Myotubes, signal relative to DMSO",[4]; 20 uM,0.9656
same,"CMV-LACZ in Myotubes, signal relative to DMSO",[4]; 40 uM,1.1900
c1ccc(-c2nn[nH]n2)nc1 [MLS000767397-01],"Burkin Assay in Myoblasts, signal relative to DMSO",[1]; 0.5 uM,0.8862
same,"Burkin Assay in Myoblasts, signal relative to DMSO",[1]; 1 uM,0.839
same,"Burkin Assay in Myoblasts, signal relative to DMSO",[1]; 5 uM,1.476
same,"Burkin Assay in Myoblasts, signal relative to DMSO",[1]; 10 uM,0.9334
same,"Burkin Assay in Myoblasts, signal relative to DMSO",[1]; 20 uM,1.613
same,"Burkin Assay in Myoblasts, signal relative to DMSO",[1]; 40 uM,0.9754
same,"Burkin Assay in Myotubes, α7 integrin LacZ reporter signal relative to DMSO",[2]; 0.5 uM,0.9294
same,"Burkin Assay in Myotubes, α7 integrin LacZ reporter signal relative to DMSO",[2]; 1 uM,0.9481
same,"Burkin Assay in Myotubes, α7 integrin LacZ reporter signal relative to DMSO",[2]; 5 uM,1.004
same,"Burkin Assay in Myotubes, α7 integrin LacZ reporter signal relative to DMSO",[2]; 10 uM,1.0608
same,"Burkin Assay in Myotubes, α7 integrin LacZ reporter signal relative to DMSO",[2]; 20 uM,0.9993
same,"Burkin Assay in Myotubes, α7 integrin LacZ reporter signal relative to DMSO",[2]; 40 uM,1.014
same,CMV-LACZ in Myoblasts (β-galactosidase activity relative to DMSO),[3]; 0.5 uM,1.2748
same,CMV-LACZ in Myoblasts (β-galactosidase activity relative to DMSO),[3]; 1 uM,1.0646
same,CMV-LACZ in Myoblasts (β-galactosidase activity relative to DMSO),[3]; 5 uM,0.9910
same,CMV-LACZ in Myoblasts (β-galactosidase activity relative to DMSO),[3]; 10 uM,0.9687
same,CMV-LACZ in Myoblasts (β-galactosidase activity relative to DMSO),[3]; 20 uM,0.8485
same,CMV-LACZ in Myoblasts (β-galactosidase activity relative to DMSO),[3]; 40 uM,1.1433
same,"CMV-LACZ in Myotubes, signal relative to DMSO",[4]; 0.5 uM,0.8737
same,"CMV-LACZ in Myotubes, signal relative to DMSO",[4]; 1 uM,1.0368
same,"CMV-LACZ in Myotubes, signal relative to DMSO",[4]; 5 uM,0.9425
same,"CMV-LACZ in Myotubes, signal relative to DMSO",[4]; 10 uM,0.9519
same,"CMV-LACZ in Myotubes, signal relative to DMSO",[4]; 20 uM,1.0144
same,"CMV-LACZ in Myotubes, signal relative to DMSO",[4]; 40 uM,1.0067
CCOC(=O)C1=C(CC)Nc2ccccc2N=C1NC(=O)c1ccc(OC)c(S(=O)(=O)N2CCCCC2C)c1 (stereo not drawn) [MLS000776409-01],"Burkin Assay in Myoblasts, signal relative to DMSO",[1]; 0.5 uM,1.1194
same,"Burkin Assay in Myoblasts, signal relative to DMSO",[1]; 1 uM,1.007
same,"Burkin Assay in Myoblasts, signal relative to DMSO",[1]; 5 uM,0.9389
same,"Burkin Assay in Myoblasts, signal relative to DMSO",[1]; 10 uM,0.9838
same,"Burkin Assay in Myoblasts, signal relative to DMSO",[1]; 20 uM,0.5087
same,"Burkin Assay in Myoblasts, signal relative to DMSO",[1]; 40 uM,0.3444
same,"Burkin Assay in Myotubes, α7 integrin LacZ reporter signal relative to DMSO",[2]; 0.5 uM,0.8925
same,"Burkin Assay in Myotubes, α7 integrin LacZ reporter signal relative to DMSO",[2]; 1 uM,1.029
same,"Burkin Assay in Myotubes, α7 integrin LacZ reporter signal relative to DMSO",[2]; 5 uM,0.882
same,"Burkin Assay in Myotubes, α7 integrin LacZ reporter signal relative to DMSO",[2]; 10 uM,0.9284
same,"Burkin Assay in Myotubes, α7 integrin LacZ reporter signal relative to DMSO",[2]; 20 uM,0.8949
same,"Burkin Assay in Myotubes, α7 integrin LacZ reporter signal relative to DMSO",[2]; 40 uM,0.8056
same,CMV-LACZ in Myoblasts (β-galactosidase activity relative to DMSO),[3]; 0.5 uM,1.1220
same,CMV-LACZ in Myoblasts (β-galactosidase activity relative to DMSO),[3]; 1 uM,0.9103
same,CMV-LACZ in Myoblasts (β-galactosidase activity relative to DMSO),[3]; 5 uM,0.8929
same,CMV-LACZ in Myoblasts (β-galactosidase activity relative to DMSO),[3]; 10 uM,0.9052
same,CMV-LACZ in Myoblasts (β-galactosidase activity relative to DMSO),[3]; 20 uM,1.3344
same,CMV-LACZ in Myoblasts (β-galactosidase activity relative to DMSO),[3]; 40 uM,0.2105
same,"CMV-LACZ in Myotubes, signal relative to DMSO",[4]; 0.5 uM,1.0552
same,"CMV-LACZ in Myotubes, signal relative to DMSO",[4]; 1 uM,0.9752
same,"CMV-LACZ in Myotubes, signal relative to DMSO",[4]; 5 uM,1.0186
same,"CMV-LACZ in Myotubes, signal relative to DMSO",[4]; 10 uM,1.1035
same,"CMV-LACZ in Myotubes, signal relative to DMSO",[4]; 20 uM,1.1040
same,"CMV-LACZ in Myotubes, signal relative to DMSO",[4]; 40 uM,1.1540
